{"source": "patent US8497279B2", "about": "“Treatment for discoid lupus” (Rigel Pharmaceuticals, Inc., priority 2011, dated 2013)", "key": {"[1]": {"test_system": "primary human T-cells", "experiment": "Primary human T-cell proliferation assay stimulated with IL-2 (CellTiter-Glo)", "format": "cell-based", "conditions": "primary human T-cells, IL-2, 72 hours, ATP readout; read-out: Example 4 IC50", "description": "In this assay, primary human T-cells derived from peripheral blood and pre-activated through stimulation of the T-cell receptor and CD28, proliferate in culture in response to the cytokine Interleukin-2 (IL-2). This proliferative response is dependent on the activation of JAK1 and JAK3 tyrosine kinases, which phosphorylate and activate the transcription factor Stat-5. […] A reduction in cell proliferation compared to control conditions is indicative of inhibition of the JAK kinase pathway. An exemplary assay of this type is described in greater detail below.\nPrimary human T-cells derived from peripheral blood and pre-activated through stimulation of the T-cell receptor and CD28, proliferate in vitro in response to the cytokine Interleukin-2 (IL-2). This proliferative response is dependent on the activation of JAK-1 and JAK-3 tyrosine kinases, which phosphorylate and activate the transcription factor Stat-5.\nHuman primary T cells were prepared as follows. […] The lymphocytes at the serum: ficoll interface were recovered and washed twice with 5 volumes of PBS. […] The primary T-cells were stimulated for 3-4 days, then transferred to a fresh flask and maintained in RPMI with 10% FBS and 40 U/mL IL-2.\nPrimary T-cells were washed twice with PBS to remove the IL-2 and resuspended in Yssel's medium at 2×10^6 cells/mL. 50 μL of cell suspension containing 80 U/mL IL-2 was added to each well of a flat bottom 96 well black plate. For the unstimulated control, IL-2 was omitted from the last column on the plate. […] 50 μL of 2× compound was added per well in duplicate and the cells were allowed to proliferate for 72 hours at 37° C.\nProliferation was measured using CellTiter-Glo® Luminescent Cell Viability Assay (Promega), which determines the number of viable cells in culture based on quantitation of the ATP present, as an indicator of metabolically active cells. The substrate was thawed and allowed to come to room temperature. After mixing the Cell Titer-Glo reagent and diluent together, 100 μL was added to each well. […]"}, "[2]": {"test_system": "JAK1 and JAK3 kinases", "experiment": "Ramos B-cell line stimulated with IL-4, CD23 upregulation (FACS)", "format": "cell-based, human", "conditions": "Ramos B cells, IL-4 50 units/mL, 20-24 hours, CD23 staining; read-out: Example 3 IC50", "method": "One means of assaying for JAK inhibition is detection of the effect of compounds I and II on the upregulation of downstream gene products. In the Ramos/IL4 assay, B-cells are stimulated with the cytokine Interleukin-4 (IL-4) leading to the activation of the JAK/Stat pathway through phosphorylation of the JAK family kinases, JAK1 and JAK3, which in turn phosphorylate and activate the transcription factor Stat-6. […] Twenty to 24 hours post stimulation, cells are stained for upregulation of CD23 and analyzed using flow cytometry (FACS). […] An exemplary assay of this type is described in greater detail below. B-cells stimulated with cytokine Interleukin-4 (IL-4) activate the JAK/Stat pathway through phosphorylation of the JAK family kinases, JAK-1 and JAK-3, which in turn phosphorylate and activate the transcription factor Stat-6. […] To study the effect of inhibitors on the JAK family kinases, human Ramos B cells are stimulated with human IL-4. The Ramos B-cell line was acquired from [NT] No. CRL-1596). The cells were cultured in RPMI 1640 (Cellgro, MediaTech, Inc., Herndon, Va., Cat No. 10-040-CM) with 10% fetal bovine serum (FBS), heat inactivated (JRH Biosciences, Inc, Lenexa, Kans., Cat No. 12106-500M) according to ATCC propagation protocol. Cells were maintained at a density of 3.5×10^5. The day before the experiment, Ramos B-cells were diluted to 3.5×10^5 cells/mL to ensure that they were in a logarithmic growth phase. Cells were spun down and suspended in RPMI with 5% serum. 5×10^4 cells were used per point in a 96-well tissue culture plate. Cells were pre-incubated with compound or DMSO (Sigma-Aldrich, St. Louis, Mo., Cat No. D2650) vehicle control for 1 hour in a 37° C. incubator. Cells were then stimulated with IL-4 (Peprotech Inc., Rocky Hill, N.J., Cat No. 200-04) for a final concentration of 50 units/mL for 20-24 hours. Cells were then spun down and stained with anti-CD23-PE(BD Pharmingen, San Diego, Calif., Cat No. 555711) and analyzed by FACS. Detection was performed using a BD LSR I System Flow Cytometer, purchased from Becton Dickinson Biosciences of San Jose, Calif."}}, "note": "Structures can show the parent of a compound that is named as a salt.", "data": [{"compound": "C#CCOc1ccc(Nc2nc(Nc3ccc(C)c(S(=O)(=O)NC(=O)CC)c3)ncc2F)cc1", "note": "[VI, 5-Fluoro-N2-[4-methyl-3-(N-propionylaminosulfonyl)phenyl]-N4-[4-(2-propynyloxy)phenyl]-2,4-pyrimidinediamine Arginine Salt]", "values": [{"measurement": "IC50", "setting": "[1]", "value": 262, "unit": "nM"}, {"measurement": "IC50", "setting": "[2]", "value": 104, "unit": "nM"}]}]}
